Series [1] concerns T2DM mice. In words: T2DM mouse model: liver histology (H&E). It counts as in vivo, C57BL/6J mice. To be noted: DhHP-6 60 mg/kg or metformin 250 mg/kg oral, four weeks. As for the experimental part:
(§1) At the end of the experiment, the liver and pancreas islets were immediately removed after the mice were sacrificed. The left lobe of the liver was stored at −80 °C and the right lobe of the liver was fixed in 4% paraformaldehyde (Solarbio & Technology Co., Ltd., Beijing, China). After dehydration in a gradient of ethanol concentrations, tissues were paraffin embedded and cut into 5 μm thick sections. Slices were stained with hematoxylin and eosin (H&E) dyes, and sections were mounted in neutral deparaffinized xylene medium for microscopic examination using an Olympus BX53 fluorescence microscope (Olympus, Tokyo, Japan).

The test system of series [2] is T2DM mice. In words: T2DM mouse model: pancreas islet histology (H&E). It counts as in vivo, C57BL/6J mice. The conditions noted are these: DhHP-6 60 mg/kg or metformin 250 mg/kg oral, four weeks. As for the experimental part: as §1
How the values of series [3] were obtained:
As a peroxidase mimetic, the enzymatic potency of the digestion products of DhHP-6 were assessed using the H2O2–Vitamin C (Vc) double-substrate method. Digestion products of DhHP-6 were diluted to 10 μM. Samples containing no enzyme were used as a control. The reaction system consisted of phosphate buffer solution (PBS) (50 mM, pH 7.4), H2O2 (1 mM), Vc ([…]), and 10 μM DhHP-6. All samples were assayed at 25 °C. The decrease in the absorbance at 290 nm was measured for 30 s by UV–Vis spectrophotometer (Shimadzu, Kyoto, Japan), and measurements were performed prior to the addition of the digestion products and set as 100% relative enzymatic activity.

Another series in a line: human plasma. The conditions noted are these: 37 °C, up to seven days.
Series [4] is described as follows: simulated gastric fluid (SGF), pH 1.2, prepared in accordance with the US Pharmacopeia. The conditions noted are these: 37 °C, up to 120 min.
A short description of series [5]: blood samples of rats after intravenous injection or intragastric administration. To be noted: male Wistar rats, up to 12 h.
Series [6] can be described thus: simulated intestinal fluid (SIF), pH 6.8 ± 0.1, prepared in accordance with the US Pharmacopeia. The conditions noted are these: 37 °C, up to 120 min.
The next series relates to T2DM rats. Also on record: method as in PMID 24946264. To be noted: injected (intraperitoneal injection); cited from earlier work. An excerpt: DhHP-6 (Deuterohemin-βAla-His-Thr-Val-Glu-Lys) was designed based on the microperoxidase-11 (MP-11), generated through […]. […] When ...

Entries after “also recorded” stand apart in the source; their conditions may differ.

In the case of `CN(C)C(=N)N=C(N)N` [metformin, reference compound], in the series on T2DM mice [1], the “liver histology, high dose / metformin” value is “lower levels of steatosis were evident and the liver cells became more regular than T2DM mice”. In addition, the “pancreas islet histology, high dose / metformin” value in the series on T2DM mice [2] is “the islets and vacuolar degeneration improved”.

As for Deuterohemin-βAla-His-Thr [DhHP-3], the “relative enzyme activity of the plasma degradation product” value in series [3] is reported as “retained the relative enzyme activity of DhHP-6”.

Consider Deuterohemin-βAla-His-Thr-Val-Glu-Lys, for which the fragment found result is “DhHP-3 (Deuterohemin-βAla-His-Thr), major” in “human plasma”; “DhHP-5 (Deuterohemin-βAla-His-Thr-Val-Glu), major” in series [4]; “DhHP-3, major” in series [5]; “DhHP-5; also recorded: DhHP-2 (Deuterohemin-βAla-His)” in series [6].

Take “deuterohemin-Ala-His-Lys [DhHP-3 (deuterohemin-Ala-His-Lys)]”: the “symptoms of T2DM rats” value in the series on T2DM rats is recorded as “improves the symptoms of T2DM rats”.
